Data published in patent US6355799B1, “Substituted benzene compounds, process for their preparation, and herbicidal and defoliant compositions containing them” (ISK Americas Incorporated, priority 1997, dated 2002).

Columns and labels:
Assay type in all cases: in vivo
[1] = test system: ivyleaf morningglory (Ipomoea hederacea, IPOHE); experiment: Pre-emerge test, greenhouse herbicide activity screening; settings: pre-emerge, 14 days after application
In short: (§1)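 Sandy loam pots; pre-emerge: sown 1 d pre-spray, surface-watered after, then bottom-watered. Post-emerge: sown 8–21 d before, 2–3 leaf stage, + 0.25% v/v NIS, bottom-watered. Acetone, 187 l/ha track spray, 15–1000 g ai/ha. 0–100 injury score, day 14.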

[2] = test system: sicklepod (Cassia obtusifolia, CASOB); experiment: as above; settings: pre-emerge, 14 days after application
In short: as §1

[3] = test system: large crabgrass (Digitaria sanguinalis, DIGSA); experiment: as above; settings: pre-emerge, 14 days after application
In short: as §1

[4] = test system: velvetleaf (Abutilon theophrasti, ABUTH); experiment: as above; settings: pre-emerge, 14 days after application
In short: as §1

[5] = test system: green foxtail (Setaria viridis, SETVI); experiment: as above; settings: pre-emerge, 14 days after application
In short: as §1

[6] = test system: lambsquarters (Chenopodium album, CHEAL); experiment: as above; settings: pre-emerge, 14 days after application
In short: as §1

[7] = test system: johnsongrass (Sorghum halepense, SORHA); experiment: as above; settings: pre-emerge, 14 days after application
In short: as §1

[8] = test system: barnyardgrass (Echinochloa crus-galli, ECHCG); experiment: as above; settings: pre-emerge, 14 days after application
In short: as §1

[9] = test system: redroot pigweed (Amaranthus retroflexus, AMARE); experiment: as above; settings: pre-emerge, 14 days after application
In short: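 Herbicidal damage is scored 0 (none) to 100 (complete plant death) two weeks after a simulated field spray. Rates span 15–1000 g ai/ha, delivered in acetone at 187 l/ha. For post-emergence treatments, plants have 2–3 leaves and the spray carries 0.25% v/v non-ionic surfactant.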

[10] = test system: ivyleaf morningglory (Ipomoea hederacea, IPOHE); experiment: Post-emerge test, greenhouse herbicide activity screening; settings: post-emerge, 14 days after application, rating scale 0-100
In short: (§2)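 Rating: 0–100 visual injury, 14 DAA. Application: acetone, 187 l/ha, 15–1000 g ai/ha, flat-fan track sprayer with nozzle 40–45 cm above soil or canopy. Post-emerge runs used 0.25% v/v surfactant on 2–3 leaf plants.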

[11] = test system: sicklepod (Cassia obtusifolia, CASOB); experiment: as above; settings: post-emerge, 14 days after application, rating scale 0-100
In short: as §2

[12] = test system: large crabgrass (Digitaria sanguinalis, DIGSA); experiment: as above; settings: post-emerge, 14 days after application, rating scale 0-100
In short: as §2

[13] = test system: velvetleaf (Abutilon theophrasti, ABUTH); experiment: as above; settings: post-emerge, 14 days after application, rating scale 0-100
In short: as §2

[14] = test system: redroot pigweed (Amaranthus retroflexus, AMARE); experiment: as above; settings: post-emerge, 14 days after application
In short: as §2

[15] = test system: green foxtail (Setaria viridis, SETVI); experiment: as above; settings: post-emerge, 14 days after application, rating scale 0-100
In short: as §2

[16] = test system: johnsongrass (Sorghum halepense, SORHA); experiment: as above; settings: post-emerge, 14 days after application, rating scale 0-100
In short: as §2

[17] = test system: barnyardgrass (Echinochloa crus-galli, ECHCG); experiment: as above; settings: post-emerge, 14 days after application, rating scale 0-100
In short: as §2

[18] = test system: lambsquarters (Chenopodium album, CHEAL); experiment: as above; settings: post-emerge, 14 days after application, rating scale 0-100
In short: as §2

[19] = 250 g ai/ha, rating scale 0-100

Cn1c(C(F)(F)F)cc(=O)n(-c2c(F)cc(Cl)cc2NC(=O)c2ccc3ccccc3c2)c1=O [Compound 2-145, 3-[4-chloro-6-fluoro-2-(2-naphthoylamino)phenyl]-1-methyl-6-trifluoromethyl-2,4(1H, 3H)-pyrimidinedione]
phytotoxicity rating IPOHE ([1]; 63 g ai/ha, scale 0-100): 10 | phytotoxicity rating IPOHE ([1]; 250 g ai/ha, scale 0-100): 100 | phytotoxicity rating CASOB ([2]; 63 g ai/ha, scale 0-100): 40 | phytotoxicity rating CASOB ([2]; 250 g ai/ha, scale 0-100): 90 | phytotoxicity rating DIGSA ([3]; 63 g ai/ha, scale 0-100): 90 | phytotoxicity rating DIGSA ([3]; 250 g ai/ha, scale 0-100): 100 | phytotoxicity rating ABUTH ([4]; 63 g ai/ha, scale 0-100): 90 | phytotoxicity rating ABUTH ([4]; 250 g ai/ha, scale 0-100): 100 | phytotoxicity rating SETVI ([5]; 63 g ai/ha, scale 0-100): 60 | phytotoxicity rating SETVI ([5]; 250 g ai/ha, scale 0-100): 100 | phytotoxicity rating CHEAL ([6]; 63 g ai/ha, scale 0-100): 100 | phytotoxicity rating CHEAL ([6]; 250 g ai/ha, scale 0-100): 100 | phytotoxicity rating SORHA ([7]; 63 g ai/ha, scale 0-100): 30 | phytotoxicity rating SORHA ([7]; 250 g ai/ha, scale 0-100): 50 | phytotoxicity rating ECHCG ([8]; 63 g ai/ha, scale 0-100): 35 | phytotoxicity rating ECHCG ([8]; 250 g ai/ha, scale 0-100): 60 | phytotoxicity rating AMARE ([9]; 63 g ai/ha, scale 0-100): 100 | phytotoxicity rating AMARE ([9]; 250 g ai/ha, scale 0-100): 100 | IPOHE phytotoxicity rating ([10]; 63 g ai/ha): 100 | IPOHE phytotoxicity rating ([10]; 250 g ai/ha): 100 | CASOB phytotoxicity rating ([11]; 63 g ai/ha): 100 | CASOB phytotoxicity rating ([11]; 250 g ai/ha): 100 | DIGSA phytotoxicity rating ([12]; 63 g ai/ha): 0 | DIGSA phytotoxicity rating ([12]; 250 g ai/ha): 10 | ABUTH phytotoxicity rating ([13]; 63 g ai/ha): 100 | ABUTH phytotoxicity rating ([13]; 250 g ai/ha): 100 | AMARE phytotoxicity rating ([14]; 63 g ai/ha, rating scale 0-100): 95 | AMARE phytotoxicity rating [14, 19]: 100 | SETVI phytotoxicity rating ([15]; 63 g ai/ha): 0 | SETVI phytotoxicity rating ([15]; 250 g ai/ha): 40 | SORHA phytotoxicity rating ([16]; 63 g ai/ha): 0 | SORHA phytotoxicity rating ([16]; 250 g ai/ha): 10 | ECHCG phytotoxicity rating ([17]; 63 g ai/ha): 0 | ECHCG phytotoxicity rating ([17]; 250 g ai/ha): 20

COc1c(Cl)cc(F)c(-n2c(=O)cc(C(F)(F)F)n(C)c2=O)c1OC(=O)c1ccc2ccccc2c1 [Compound 16-7, 3-[4-chloro-6fluoro-3-methoxy-2-(2-naphthoyloxy)phenyl]-1-methyl-6-trifluoromethyl-2,4(1H, 3H)-pyrimidinedione]
phytotoxicity rating IPOHE ([1]; 63 g ai/ha, rating scale 0-100): 0 | phytotoxicity rating IPOHE [1, 19]: 0 | phytotoxicity rating CASOB ([2]; 63 g ai/ha, rating scale 0-100): 0 | phytotoxicity rating CASOB [2, 19]: 0 | phytotoxicity rating DIGSA ([3]; 63 g ai/ha, rating scale 0-100): 0 | phytotoxicity rating DIGSA [3, 19]: 0 | phytotoxicity rating ABUTH ([4]; 63 g ai/ha, rating scale 0-100): 0 | phytotoxicity rating ABUTH [4, 19]: 0 | phytotoxicity rating SETVI ([5]; 63 g ai/ha, rating scale 0-100): 0 | phytotoxicity rating SETVI [5, 19]: 0 | phytotoxicity rating CHEAL ([6]; 63 g ai/ha, rating scale 0-100): 0 | phytotoxicity rating CHEAL [6, 19]: 0 | phytotoxicity rating SORHA ([7]; 63 g ai/ha, rating scale 0-100): 0 | phytotoxicity rating SORHA [7, 19]: 0 | phytotoxicity rating ECHCG ([8]; 63 g ai/ha, rating scale 0-100): 0 | phytotoxicity rating ECHCG [8, 19]: 0 | phytotoxicity rating AMARE ([9]; 63 g ai/ha, rating scale 0-100): 0 | phytotoxicity rating AMARE [9, 19]: 50 | Post-emerge Herbicidal Activity IPOHE (phytotoxicity rating) ([10]; 63 g ai/ha): 0 | Post-emerge Herbicidal Activity IPOHE (phytotoxicity rating) ([10]; 250 g ai/ha): 30 | Post-emerge Herbicidal Activity CASOB (phytotoxicity rating) ([11]; 63 g ai/ha): 0 | Post-emerge Herbicidal Activity CASOB (phytotoxicity rating) ([11]; 250 g ai/ha): 30 | Post-emerge Herbicidal Activity DIGSA (phytotoxicity rating) ([12]; 63 g ai/ha): 0 | Post-emerge Herbicidal Activity DIGSA (phytotoxicity rating) ([12]; 250 g ai/ha): 0 | Post-emerge Herbicidal Activity ABUTH (phytotoxicity rating) ([13]; 63 g ai/ha): 0 | Post-emerge Herbicidal Activity ABUTH (phytotoxicity rating) ([13]; 250 g ai/ha): 0 | Post-emerge Herbicidal Activity AMARE (phytotoxicity rating) ([14]; 63 g ai/ha, rating scale 0-100 (0 no damage, 100 complete death)): 0 | Post-emerge Herbicidal Activity AMARE (phytotoxicity rating) [14, 19]: 0 | Post-emerge Herbicidal Activity SETVI (phytotoxicity rating) ([15]; 63 g ai/ha): 0 | Post-emerge Herbicidal Activity SETVI (phytotoxicity rating) ([15]; 250 g ai/ha): 0 | Post-emerge Herbicidal Activity CHEAL (phytotoxicity rating) ([18]; 63 g ai/ha): 0 | Post-emerge Herbicidal Activity CHEAL (phytotoxicity rating) ([18]; 250 g ai/ha): 0 | Post-emerge Herbicidal Activity SORHA (phytotoxicity rating) ([16]; 63 g ai/ha): 0 | Post-emerge Herbicidal Activity SORHA (phytotoxicity rating) ([16]; 250 g ai/ha): 0 | Post-emerge Herbicidal Activity ECHCG (phytotoxicity rating) ([17]; 63 g ai/ha): 0 | Post-emerge Herbicidal Activity ECHCG (phytotoxicity rating) ([17]; 250 g ai/ha): 0
